From BindingDB's records for doi:10.1016/s0960-894x(98)00596-4 (University of Connecticut, 1999)

Legend:
[1] = Inhibitory activity against alpha-L-fucosidase in bovine kidney; Competitive Inhibition type
[2] = Inhibitory activity against alpha-L-fucosidase in bovine kidney at PH of 6.5; Mixed Inhibition type; conditions: pH 6.5
[3] = Inhibitory activity against alpha-L-fucosidase in bovine epididymis at PH of 6.5; Competitive Inhibition type; conditions: pH 6.5

Ki [1] [µM]	Ki [2] [µM]	Ki [3] [µM]	SMILES
42	–	–	O[C@H]1[C@H](O)[C@H](O)O[C@@H](CS)[C@H]1O [(2R,3S,4R,5S,6R)-6-Mercaptomethyl-tetrahydro-pyran-2,3,4,5-tetraol]
–	4.6	5.6	CC(=O)NCSC1OC(C)C(O)C(O)C1O (stereo not drawn) [N-(3,4,5-Trihydroxy-6-methyl-tetrahydro-pyran-2-ylsulfanylmethyl)-acetamide]
